Where two headings read alike, the source gives them in different places.
Experiments:
[1] = Metabolite analysis: fraction of unchanged [^11C]ITMM in the plasma; format: in vivo, rat; conditions: for unchanged [^11C]ITMM in the plasma: the two SAs
Protocol: A bolus (0.5 mL) of [^11C]ITMM with conventional or ultra-high SA was injected for 10 s via a catheter inserted in the tail vein. Dynamic emission scans in three-dimensional list mode were performed for 90 min (10 s x 12 frames, 20 s x 3 frames, 30 s x 3 frames, 60 s x 3 frames, 150 s x 3 frames, and 300 s x 15 frames). For counting radioactivity, blood samples were manually acquired at intervals of 10 s (0.05 mL for 50 s), 1-min intervals (0.05 mL for 5 min), and then at 10 (0.05 mL), 15 (0.2 mL), 30 (0.3 mL), 60 (0.4 mL), and 90 min (0.5 mL) after the PET scan started. For metabolite analysis, six samples of blood were obtained at 1 (0.02 mL), 5 (0.02 mL), 15 (0.05 mL), 30 (0.1 mL), 60 (0.2 mL), and 90 min (0.3 mL) after the injection. Blood samples were centrifuged at 13,000g at 4°C to separate the plasma. Levels of radioactivity in the whole blood and plasma were counted using a 1480 Wizard auto-gamma scintillation counter (Perkin-Elmer, Waltham, MA, USA). The radioactivity was corrected for decay.
Metabolite analysis was performed as described previously. Briefly, whole blood samples were treated to separate the plasma, which was deproteinized with an equivalent amount of acetonitrile. An aliquot of the supernatant obtained from the plasma was analyzed by HPLC with a radiation detector [23]. Plasma protein binding was not determined in the present study. The time curves for the fraction of unchanged [^11C]ITMM in the plasma were fitted using three exponential equations, and subsequently used for kinetic analysis.

[2] = test system: mGluR1; set-up: method as in PMID 23804329; conditions: cited from earlier work; for total distribution volume (V T): human brain
[3] = biological target: T1, mGluR1 (Rattus norvegicus, UniProt P23385); set-up: from tissue; host or cells: cerebellum homogenate; method as in PMID 22316010; conditions: affinity for mGluR1; cited from earlier work
T1 sequence (P23385 19-1199): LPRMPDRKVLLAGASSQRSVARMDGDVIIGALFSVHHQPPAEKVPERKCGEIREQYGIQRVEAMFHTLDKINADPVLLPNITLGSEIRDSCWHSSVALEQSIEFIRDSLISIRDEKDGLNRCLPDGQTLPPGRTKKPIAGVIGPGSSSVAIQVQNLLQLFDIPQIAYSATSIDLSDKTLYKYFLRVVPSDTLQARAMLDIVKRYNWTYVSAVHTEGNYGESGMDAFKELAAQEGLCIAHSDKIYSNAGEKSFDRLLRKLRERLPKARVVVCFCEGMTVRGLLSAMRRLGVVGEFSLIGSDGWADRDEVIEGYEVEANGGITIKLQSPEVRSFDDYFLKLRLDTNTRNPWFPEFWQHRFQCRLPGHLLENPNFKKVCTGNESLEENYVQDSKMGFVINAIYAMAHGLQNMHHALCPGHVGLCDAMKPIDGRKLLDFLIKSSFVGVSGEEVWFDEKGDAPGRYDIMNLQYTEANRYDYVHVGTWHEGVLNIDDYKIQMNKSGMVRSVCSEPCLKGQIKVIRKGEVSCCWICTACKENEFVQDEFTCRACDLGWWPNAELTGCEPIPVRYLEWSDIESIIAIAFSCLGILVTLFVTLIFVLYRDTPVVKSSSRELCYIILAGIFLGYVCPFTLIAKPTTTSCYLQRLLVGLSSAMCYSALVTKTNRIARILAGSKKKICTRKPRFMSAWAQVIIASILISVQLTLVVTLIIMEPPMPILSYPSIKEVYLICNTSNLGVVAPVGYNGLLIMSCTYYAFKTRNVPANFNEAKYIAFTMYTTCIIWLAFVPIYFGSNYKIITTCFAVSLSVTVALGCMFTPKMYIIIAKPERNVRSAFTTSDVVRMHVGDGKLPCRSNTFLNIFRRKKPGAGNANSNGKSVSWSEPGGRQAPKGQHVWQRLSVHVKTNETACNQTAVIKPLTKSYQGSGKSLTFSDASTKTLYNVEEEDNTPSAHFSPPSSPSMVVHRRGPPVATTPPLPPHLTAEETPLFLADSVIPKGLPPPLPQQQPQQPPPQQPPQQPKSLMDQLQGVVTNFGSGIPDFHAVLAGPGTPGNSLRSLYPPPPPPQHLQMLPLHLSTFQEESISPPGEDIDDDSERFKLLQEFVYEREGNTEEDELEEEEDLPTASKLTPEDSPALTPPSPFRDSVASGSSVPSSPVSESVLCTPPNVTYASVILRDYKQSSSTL

[4] = biological target: T1, mGluR1; assay: Estimation of equilibrium state from tissue-to-plasma concentration ratios C t'(t)/C P'(t); format: in vivo; set-up: from tissue; host or cells: living SD rat brain (in vivo PET)
Protocol: Estimations of the equilibrium state of [^11C]ITMM in each brain region were obtained using averaged plasma input functions and averaged tissue TACs. Theoretical radioactive concentrations in each brain region (C t ’) and the plasma input function of [^11C]ITMM (C P ’) were estimated using averaged measurements extracted between 5 and 90 min after the injection and subjected to three exponential least square fitting [Radioactivity (t) = A*exp(-at) + B*exp(-bt) + C*exp(-ct)].
The estimations over 90 min after the injection were calculated by extrapolating based on the equation as described above. […]

## CC(C)Nc1cc(-c2csc(N(C)C(=O)c3ccc(O[11CH3])cc3)n2)ncn1 [[^11C]ITMM, N-[4-[6-(isopropylamino)pyrimidin-4-yl]-1,3-thiazol-2-yl]-4-[^11C]methoxy-N-methyl-benzamide]
[1]; 1 min after injection, conventional SA
  Unchanged form in the plasma: 95.2 ± 1.2%
[1]; 1 min after injection, ultra-high SA
  Unchanged form in the plasma: 97.3 ± 0.6%
[1]; 5 min after injection, conventional SA
  Unchanged form in the plasma: 74.0 ± 2.1%
[1]; 5 min after injection, ultra-high SA
  Unchanged form in the plasma: 77.1 ± 3.2%
[1]; 15 min after injection, conventional SA
  Unchanged form in the plasma: 53.7 ± 2.6%
[1]; 15 min after injection
  unchanged [^11C]ITMM in the plasma: roughly 55%
[1]; 15 min after injection, ultra-high SA
  Unchanged form in the plasma: 56.2 ± 4.0%
[1]; 30 min after injection, conventional SA
  Unchanged form in the plasma: 36.8 ± 2.6%
[1]; 30 min after injection, ultra-high SA
  Unchanged form in the plasma: 40.0 ± 4.0%
[1]; 60 min after injection, conventional SA
  Unchanged form in the plasma: 21.7 ± 2.0%
[1]; 60 min after injection, ultra-high SA
  Unchanged form in the plasma: 24.7 ± 2.9%
[1]; 90 min after injection, conventional SA
  Unchanged form in the plasma: 15.7 ± 1.3%
[1]; 90 min after injection
  unchanged [^11C]ITMM in the plasma: roughly 15%
[1]; 90 min after injection, ultra-high SA
  Unchanged form in the plasma: 18.2 ± 2.5%
[2]; healthy humans, first-in human PET study
  [^11C]ITMM that reached the brain: 0.001–0.004 % of the injection dose/mL
[2]; cerebellum (mGluR1-rich region)
  total distribution volume (V T): 2.61 mL/cm^3
[2]; pons (mGluR1-negligible region)
  total distribution volume (V T): 0.52 mL/cm^3
[3]
  Ki: 12.6 nM
[4]; both SA conditions, all brain regions, 90 min PET
  bindings reached, of the equilibrium state: 80–98%
[4]; both SA conditions, all brain regions, after the injection
  equilibrium times: 100 to 150 min
[4]; cerebellum, conventional SA
  estimated equilibrium time: 150 min
[4]; cerebellum, conventional SA, 90 min PET
  uptake of radioactivity reached, of equilibrium state: 80%
[4]; cerebellum, ultra-high SA
  estimated equilibrium time: 150 min
[4]; cerebellum, ultra-high SA, 90 min PET
  uptake of radioactivity reached, of equilibrium state: 82%
[4]; cingulate cortex, conventional SA
  estimated equilibrium time: 100 min
[4]; cingulate cortex, conventional SA, 90 min PET
  uptake of radioactivity reached, of equilibrium state: 96%
[4]; cingulate cortex, ultra-high SA
  estimated equilibrium time: 120 min
[4]; cingulate cortex, ultra-high SA, 90 min PET
  uptake of radioactivity reached, of equilibrium state: 91%
[4]; hippocampus, conventional SA
  estimated equilibrium time: 120 min
[4]; hippocampus, conventional SA, 90 min PET
  uptake of radioactivity reached, of equilibrium state: 93%
[4]; hippocampus, ultra-high SA
  estimated equilibrium time: 130 min
[4]; hippocampus, ultra-high SA, 90 min PET
  uptake of radioactivity reached, of equilibrium state: 89%
[4]; pons, conventional SA
  estimated equilibrium time: 110 min
[4]; pons, conventional SA, 90 min PET
  uptake of radioactivity reached, of equilibrium state: 94%
[4]; pons, ultra-high SA
  estimated equilibrium time: 100 min
[4]; pons, ultra-high SA, 90 min PET
  uptake of radioactivity reached, of equilibrium state: 98%
[4]; striatum, conventional SA
  estimated equilibrium time: 120 min
[4]; striatum, conventional SA, 90 min PET
  uptake of radioactivity reached, of equilibrium state: 93%
[4]; striatum, ultra-high SA
  estimated equilibrium time: 130 min
[4]; striatum, ultra-high SA, 90 min PET
  uptake of radioactivity reached, of equilibrium state: 90%
[4]; substantia nigra, conventional SA
  estimated equilibrium time: 110 min
[4]; substantia nigra, conventional SA, 90 min PET
  uptake of radioactivity reached, of equilibrium state: 94%
[4]; substantia nigra, ultra-high SA
  estimated equilibrium time: 100 min
[4]; substantia nigra, ultra-high SA, 90 min PET
  uptake of radioactivity reached, of equilibrium state: 98%
[4]; thalamus, conventional SA
  estimated equilibrium time: 120 min
[4]; thalamus, conventional SA, 90 min PET
  uptake of radioactivity reached, of equilibrium state: 91%
[4]; thalamus, ultra-high SA
  estimated equilibrium time: 140 min
[4]; thalamus, ultra-high SA, 90 min PET
  uptake of radioactivity reached, of equilibrium state: 87%
